Data: patent publication US20100022646A1, “METHOD OF NEUTRALISING ORGANOBORONATES WITH ACIDS” (priority 2004, published 2010)

What was measured:
thrombin [1] = target: T1, thrombin (Homo sapiens, UniProt P00734); assay: Thrombin amidolytic assay (FIGS. 1 to 3): neutralisation of TRI 50c inhibition of thrombin; type: biochemical; conditions: for neutralising the effect of TRI 50c (thrombin activity restored): added after 100 nM TRI 50c; for TRI 50c neutralising activity: FIG. 2, cholesterol linoleic acid esters and free linoleic acids, stereoisomers; for neutralising ability against TRI 50c: FIG. 3, over 30 minutes
T1 construct: purchased Haematologic Technologies Inc
Method: Peptide boronate inhibitors were synthesised by Trigen Limited. Thrombin was obtained from Haematologic Technologies Inc. Chromogenic substrate was obtained from Quadratech. Linoleic acid analogues were obtained from Cayman Chemicals USA. Buffer reagents were obtained from Merck.
Peptide boronate inhibitor of thrombin (TRI 50c, 100 nM) was incubated with thrombin (33.3 ng/ml) in assay buffer (100 mM sodium phosphate, 200 mM NaCl, 0.5% PEG 6000 and 0.02% sodium azide, pH 7.5) for 5 minutes at 37° C. Test compounds were then added and incubated for various amounts of time prior to the addition of S2238 chromogenic substrate (5 uM). The reaction was followed at […] and 37° C. using a Thermomax kinetic plate reader (Molecular Devices Corporation). Results of the assay are expressed as percentage activities of thrombin relative to that seen in the absence of inhibitor or antidote.

thrombin [2] = assay: IC50 values: percentage reversal of TRI 50c inhibition of thrombin by hydroxy fatty acid; type: biochemical; conditions: thrombin 33.3 ng/ml, TRI 50c 300 nM final, 30 minutes at 37° C., S2238
Method: 50 μl thrombin (33.3 ng/ml in assay buffer) and 20 μl TRI 50c (300 nM final) were added to 10 μl assay buffer (100 mM Na orthophosphate (80% Na2HPO4 and 20% NaH2PO4), 200 mM NaCl, 0.5% PEG 6000, 0.02% Na azide, pH 7.5) and incubated for 5 minutes at 37° C. After the incubation period 100 μl of hydroxy fatty acid was added and further incubated for 30 minutes at 37° C. […] Results were expressed as percentage reversal of TRI 50c inhibition.

[3] = Assay for deboronation (LCMS of TGN 255/9(S)-HODE mixture); conditions: TGN 255 6.7 mg/ml, 9(S)-HODE 0.01 mg/ml, 37° C. 30 mins, then room temperature overnight; uv chromatogram and mass
Method: This Example relates to a method for detecting the amount of deboronation of a product, TRI 50, in the presence of 9-HODE. A proposed mechanism for the degradation of TRI 50 is shown below.
The thrombin buffer was made up of 100 mM NaOphosphate [80% Na2HPO4 (11.36 g/l anhydrous)+20% NaH2PO4 (2.4 g/l anhydrous)], 200 mM NaCl (11.688 g/l), 0.5% PEG 6000 (5 g/l), 0.02% Na azide (0.2 g/l), pH 7.5.
TGN 255 (20 mg) was dissolved in DMSO (1.9 ml). To this was added thrombin buffer (0.8 ml), followed by 9(S)-HODE (supplied by Cayman Chemical) in thrombin buffer (0.3 ml, 337 uM). The solution was incubated at 37° C. for 30 mins.
Samples of TGN 255 (14 mg/ml in methanol) and Impurity I (5.6 mg/ml in methanol) were prepared as standards. The 9(S)-HODE assay sample was allowed to stand at room temperature overnight and analysed the following day.

[4] = Neutralisation by cholesteryl linoleate hydroperoxide (residual TRI-50b concentration)
Method: Cholesteryl linoleate hydroperoxide (44 μM) was incubated with TRI-50b in the range 0 to 4.9 mM. Samples were taken at timed intervals and the residual TRI-50b concentration was determined by Method C (Materials and Methods).

For “9,13- hydroxy cholesterol linoleic acid ester [9/13-CLOH]”, the “neutralising the effect of TRI 50c (thrombin activity restored)” value (“neutralising the effect of TRI 50c” for short) (thrombin [1]; FIG. 1) was “effective in neutralising the effect of TRI 50c”.
For `CCCCC/C=C\C/C=C\C/C=C\C=C\C(O)CCCC(=O)O` (racemic) [(+/−)5-HETE], the IC50 (thrombin [2]) was over 30 µM.
With `CCCCC/C=C\C/C=C\CC(O)C(O)C/C=C\CCCC(=O)O` (racemic) [(+/−)8,9-DIHETRE] the IC50 (thrombin [2]) was over 30 µM.
Work on `CCCCC/C=C\C/C=C\C=C\C(O)C/C=C\CCCC(=O)O` (racemic) [(+/−)8-HETE] yielded an IC50 (thrombin [2]) of over 30 µM.
For `CCCCC/C=C\C=C\C(O)CCCCCCCCCC(=O)O` (racemic) [(+/−)11-HEDE], the IC50 (thrombin [2]) was over 30 µM.
With `C[C@H]1CCC/C=C/C2C[C@H](O)CC2[C@H](O)/C=C/C(=O)O1` (single isomer, unassigned; (+)) [(+)-Brefeldin A, reference compound] the IC50 (thrombin [2]) was over 30 µM.
With `COC(=O)[C@H]1CC2CCC1[C@@H](O)C2` (stereo in doubt) [Methyl 6-hydroxybicyclo[2.2.2]octane-2-carboxylate, reference compound] the IC50 (thrombin [2]) was over 30 µM.
`CCCCC/C=C\C/C=C\C/C=C\C=C\[C@H](CCCC(=O)O)OO` [5(S)-HPETE] showed an IC50 (thrombin [2]) of 25 µM.
Molecule `CC/C=C\C/C=C\C/C=C\C=C\[C@@H](O)C/C=C\CCCC(=O)O` [8(S)-HEPE, 8(S)-hydroxy-5Z, 9E, 11Z, 14Z, 17Z-eicosapentaenoic acid] has an IC50 (thrombin [2]) of 14 µM.
Molecule `CCCCC/C=C\C/C=C\C=C\[C@@H](O)CCCCCCC(=O)O` [8(S)-HETRE, 8(S)-hydroxy-9E, 11Z, 14Z-eicosatrienoic acid] has an IC50 (thrombin [2]) of 16 µM.
`CCCCC/C=C\C=C\[C@H](O)CCCCCCCC(=O)O` [9(R)-HODE] gave an IC50 (thrombin [2]) of over 30 µM.
With `CCCCC/C=C\C=C\[C@@H](O)CCCCCCCC(=O)OC1CC[C@@]2(C)C(=CCC3C4CCC(C(C)CCCC(C)C)[C@@]4(C)CCC32)C1` (stereo partly drawn) [9(S)-HODE cholesteryl ester] the “TRI 50c neutralising activity” value (thrombin [1]) was “particularly good”, the “neutralising ability against TRI 50c” value (thrombin [1]) was “very good” and the IC50 (thrombin [2]) was 4.4 µM.
In the case of `CCCCC/C=C\C=C\[C@@H](O)CCCCCCCC(=O)O` [9(S)-HODE, 9(S)-hydroxy-10E,12Z-octadecadienoic acid], the “TRI 50c neutralising activity” value (thrombin [1]) is reported as “particularly good”, the “neutralising ability against TRI 50c” value (thrombin [1]) is reported as “particularly good effect” and the IC50 (thrombin [2]) is reported as 12 µM. For the same molecule, the “deboronation/degradation of TGN 255 to Impurity I” value [3] was “degradation has occurred”.
For `CC/C=C\C/C=C\C=C\[C@@H](O)CCCCCCCC(=O)O` [9(S)-HOTRE], the IC50 (thrombin [2]) was over 30 µM.
`CCCCC/C=C\C=C\[C@H](CCCCCCCC(=O)O)OO` [9(S)-HpODE, 9-(S)-hydroperoxy-10E,12Z-octadecadienoic acid] showed an IC50 (thrombin [2]) of over 30 µM.
With `CCCCCC=CC=CC(O)CCCCCCCC(=O)O[C@H]1CC[C@@]2(C)C(=CC[C@H]3[C@@H]4CC[C@H]([C@H](C)CCCC(C)C)[C@@]4(C)CC[C@@H]32)C1` (stereo partly shown) [9-CLOH, 9-hydroxy cholesterol linoleic acid ester] the “neutralising the effect of TRI 50c” value (thrombin [1]; FIG. 1) was “effective in neutralising the effect of TRI 50c”.
With `CCCCC[C@@H](/C=C/C=C\CCCCCCCC(=O)O)OO` [13(S)-HpODE, 13(S)-hydroperoxy-octadecadienoic acid] the “TRI 50c neutralising activity” value (thrombin [1]) was “particularly good”.
`CC1(C)[C@@]2(C)CC[C@]1(C)[C@H](CC(=O)O)[C@H]2O` [(−)-Isoborneolacetic Acid, reference compound] showed an IC50 (thrombin [2]) of over 30 µM.
In the case of `COCCC[C@H](NC(=O)[C@@H]1CCCN1C(=O)[C@@H](Cc1ccccc1)NC(=O)OCc1ccccc1)B(O)O` [TRI 50c, Cbz-(R)-Phe-(S)-Pro-(R)-Mpg-B(OH)2, reference compound], the “thrombin activity as compared with the control (no TRI 50c present)” value (thrombin [1]; FIG. 1, addition of 100 nM TRI 50c, thrombin 33.3 ng/ml, S2238 substrate) is reported as “approximately 50%”.
With “cholesterol hydroperoxylinoleic acid ester [CLOOH]” the “neutralising the effect of TRI 50c” value (thrombin [1]; FIG. 1) was “effective in neutralising the effect of TRI 50c”, the “TRI 50c neutralising activity” value (thrombin [1]) was “particularly good” and the equivalence of neutralisation ([4]; 44 μM cholesteryl linoleate hydroperoxide mixed with TRI-50b) was “approximately 1 mole/mole”. The “rate of neutralisation of TRI-50b” value ([4]; 44 μM cholesteryl linoleate hydroperoxide, TRI-50b 0 to 4.9 mM) was “high rate of neutralisation”.
